Results: US12252524B2, “GIP/GLP1 co-agonist compounds” (Eli Lilly and Company, priority 2018, dated 2025)
Numbered stars: 1 amine (or outer) side, 2 acyl side, 3 side chain; on linkers, the order of the positions; unused ones are H or OH. Square brackets hold non-standard residues; d marks the D form. Side chains are listed from the residue outwards. Peptide text beside a SMILES is read from it. * marks the point of attachment. C20 diacid = O=C(O)CCCCCCCCCCCCCCCCCCC(=O)*; αMePhe(2-F) = C[C@](N)(Cc1ccccc1F)C(=O)O; γGlu = O=C(O)[C@H](CCC(=O)[*:2])N[*:1]; αMeY = C[C@](N)(Cc1ccc(O)cc1)C(=O)O; 2Pal = N[C@@H](Cc1ccccn1)C(=O)O; 4Pal = N[C@@H](Cc1ccncc1)C(=O)O; αMeL = CC(C)C[C@](C)(N)C(=O)O; Orn = NCCC[C@H](N)C(=O)O; AEEA = NCCOCCOCC(=O)O; Aib = CC(C)(N)C(=O)O

Experiments:
[1] = molecular target: human GLP-1 receptor (GLP-1R) (Homo sapiens, UniProt P43220); assay: cAMP pharmacological functional assay in presence of casein, hGLP-1R; assay type: cell-based; details: HEK293 cells expressing hGLP-1R, 0.1% Casein, geometric mean; read-out: hGLP1R cAMP Rel EC50 nM (SEM, n)
[2] = molecular target: T1, gastric inhibitory peptide receptor (GIPR) (Homo sapiens, UniProt P48546); assay: cAMP pharmacological functional assay in presence of casein, hGIPR; assay type: cell-based; details: HEK293 cells expressing hGIPR, 0.1% Casein, geometric mean; read-out: hGIPR cAMP Rel EC50 nM (SEM, n)
T1 sequence (P48546 22-466): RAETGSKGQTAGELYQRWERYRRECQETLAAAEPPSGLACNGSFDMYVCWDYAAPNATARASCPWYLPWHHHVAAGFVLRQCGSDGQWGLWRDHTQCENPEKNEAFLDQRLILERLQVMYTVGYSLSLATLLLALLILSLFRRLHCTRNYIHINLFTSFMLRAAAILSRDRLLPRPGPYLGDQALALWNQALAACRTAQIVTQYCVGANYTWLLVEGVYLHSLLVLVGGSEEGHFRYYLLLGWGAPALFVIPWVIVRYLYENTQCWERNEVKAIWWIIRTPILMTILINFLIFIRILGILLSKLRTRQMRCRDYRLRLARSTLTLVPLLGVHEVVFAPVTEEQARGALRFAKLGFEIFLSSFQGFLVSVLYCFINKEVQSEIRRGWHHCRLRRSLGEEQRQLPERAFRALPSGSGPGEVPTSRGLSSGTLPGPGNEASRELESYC

Sequence of human GLP-1 receptor (GLP-1R) (P43220 24-463): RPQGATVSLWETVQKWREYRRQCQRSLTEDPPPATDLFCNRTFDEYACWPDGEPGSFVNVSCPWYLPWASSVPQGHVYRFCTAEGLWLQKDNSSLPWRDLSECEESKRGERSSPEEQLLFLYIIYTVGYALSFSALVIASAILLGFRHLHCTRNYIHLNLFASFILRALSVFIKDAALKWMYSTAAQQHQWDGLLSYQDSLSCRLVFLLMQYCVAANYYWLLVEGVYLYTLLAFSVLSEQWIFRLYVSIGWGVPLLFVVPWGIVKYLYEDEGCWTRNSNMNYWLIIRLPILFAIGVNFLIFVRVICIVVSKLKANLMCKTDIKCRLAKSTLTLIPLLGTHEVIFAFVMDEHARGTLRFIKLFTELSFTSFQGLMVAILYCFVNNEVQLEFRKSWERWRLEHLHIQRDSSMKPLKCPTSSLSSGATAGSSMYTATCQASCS

SMILES | EC50 [1] [nM] | EC50 [2] [nM]
CC[C@H](C)[C@H](NC(=O)[C@H](CC(C)C)NC(=O)[C@H](Cc1ccc(O)cc1)NC(=O)[C@H](CCC(=O)O)NC(=O)[C@@H](NC(=O)[C@H](Cc1ccccc1)NC(=O)[C@H](CCC(=O)O)NC(=O)C(C)(C)NC(=O)[C@H](CCC(N)=O)NC(=O)[C@H](C)NC(=O)[C@H](CCCCNC(=O)COCCOCCNC(=O)COCCOCCNC(=O)CC[C@H](NC(=O)CCCCCCCCCCCCCCCCCCC(=O)O)C(=O)O)NC(=O)[C@H](CCC(=O)O)NC(=O)[C@H](CC(=O)O)NC(=O)[C@H](CC(C)C)NC(=O)[C@](C)(CC(C)C)NC(=O)[C@@H](NC(=O)[C@H](CO)NC(=O)[C@H](Cc1ccccn1)NC(=O)[C@H](CC(=O)O)NC(=O)[C@H](CO)NC(=O)[C@@H](NC(=O)[C@](C)(Cc1ccccc1F)NC(=O)[C@@H](NC(=O)CNC(=O)[C@H](CCC(=O)O)NC(=O)C(C)(C)NC(=O)[C@@H](N)Cc1ccc(O)cc1)[C@@H](C)O)[C@@H](C)O)[C@@H](C)CC)[C@@H](C)CC)C(=O)N[C@@H](CCC(=O)O)C(=O)NCC(=O)NCC(=O)N1CCC[C@H]1C(=O)N[C@@H](CO)C(=O)N[C@@H](CO)C(=O)NCC(=O)N[C@@H](C)C(=O)N1CCC[C@H]1C(=O)N1CCC[C@H]1C(=O)N1CCC[C@H]1C(=O)N[C@@H](CO)C(N)=O [Example 156] (H-Y[Aib]EGT[αMePhe(2-F)]TSD[2Pal]SI[αMeL]LDEK([AEEA-AEEA-γGlu-C20 diacid])AQ[Aib]EFIEYLIEGGPSSGAPPPS-NH2) | 0.638 | > 30
CC[C@H](C)[C@H](NC(=O)[C@H](CCCCN)NC(=O)[C@H](CC(=O)O)NC(=O)[C@H](CC(C)C)NC(=O)[C@](C)(CC(C)C)NC(=O)[C@@H](NC(=O)[C@H](CO)NC(=O)[C@H](Cc1ccc(O)cc1)NC(=O)[C@H](CC(=O)O)NC(=O)[C@H](CO)NC(=O)[C@@H](NC(=O)[C@H](Cc1ccccc1)NC(=O)[C@@H](NC(=O)CNC(=O)[C@H](CCC(=O)O)NC(=O)C(C)(C)NC(=O)[C@@H](N)Cc1ccc(O)cc1)[C@@H](C)O)[C@@H](C)O)[C@@H](C)CC)C(=O)N[C@@H](C)C(=O)N[C@@H](CCC(N)=O)C(=O)NC(C)(C)C(=O)N[C@@H](C)C(=O)N[C@@H](Cc1ccccc1)C(=O)N[C@H](C(=O)N[C@@H](CCC(=O)O)C(=O)N[C@@H](Cc1ccc(O)cc1)C(=O)N[C@@H](CC(C)C)C(=O)N[C@H](C(=O)N[C@@H](CCCCNC(=O)COCCOCCNC(=O)COCCOCCNC(=O)CC[C@H](NC(=O)CCCCCCCCCCCCCCCCCCC(=O)O)C(=O)O)C(=O)NCC(=O)NCC(N)=O)[C@@H](C)CC)[C@@H](C)CC [Example 97] (H-Y[Aib]EGTFTSDYSI[αMeL]LDKIAQ[Aib]AFIEYLIK([AEEA-AEEA-γGlu-C20 diacid])GG-NH2) | 2.18 | 1.85
CC[C@H](C)[C@H](NC(=O)[C@H](CC(C)C)NC(=O)[C@H](Cc1ccc(O)cc1)NC(=O)[C@@H](CCC(=O)O)NC(=O)[C@@H](NC(=O)[C@H](Cc1ccccc1)NC(=O)[C@H](CCC(=O)O)NC(=O)C(C)(C)NC(=O)[C@H](CCC(N)=O)NC(=O)[C@H](C)NC(=O)[C@H](CCC(N)=O)NC(=O)[C@H](CCCN)NC(=O)[C@H](CC(=O)O)NC(=O)[C@H](CC(C)C)NC(=O)[C@](C)(CC(C)C)NC(=O)[C@@H](NC(=O)[C@H](CO)NC(=O)[C@H](Cc1ccc(O)cc1)NC(=O)[C@H](CC(=O)O)NC(=O)[C@H](CO)NC(=O)[C@@H](NC(=O)[C@](C)(Cc1ccccc1F)NC(=O)[C@@H](NC(=O)CNC(=O)[C@H](CCC(=O)O)NC(=O)C(C)(C)NC(=O)[C@@H](N)Cc1ccc(O)cc1)[C@@H](C)O)[C@@H](C)O)[C@@H](C)CC)[C@@H](C)CC)C(=O)N[C@@H](CCC(=O)O)C(=O)NCC(=O)NCC(=O)N1CCC[C@H]1C(=O)N[C@@H](CO)C(=O)N[C@@H](CO)C(=O)NCC(=O)N[C@@H](C)C(=O)N1CCC[C@H]1C(=O)N1CCC[C@H]1C(=O)N1CCC[C@H]1C(=O)N[C@@H](CO)C(=O)N[C@@H](CS)C(N)=O [Example 283] (H-Y[Aib]EGT[αMePhe(2-F)]TSDYSI[αMeL]LD[Orn]QAQ[Aib]EFI[dE]YLIEGGPSSGAPPPSC-NH2) | 0.155 | 0.301
CC[C@H](C)[C@H](NC(=O)[C@H](CC(C)C)NC(=O)[C@H](Cc1ccc(O)cc1)NC(=O)[C@@H](CCC(=O)O)NC(=O)[C@@H](NC(=O)[C@H](Cc1ccccc1)NC(=O)[C@@H](NC(=O)C(C)(C)NC(=O)[C@H](CCC(N)=O)NC(=O)[C@H](C)NC(=O)[C@H](CCCCNC(=O)COCCOCCNC(=O)COCCOCCNC(=O)CC[C@H](NC(=O)CCCCCCCCCCCCCCCCCCC(=O)O)C(=O)O)NC(=O)[C@H](CCC(=O)O)NC(=O)[C@H](CC(=O)O)NC(=O)[C@H](CC(C)C)NC(=O)[C@](C)(CC(C)C)NC(=O)[C@@H](NC(=O)[C@H](CO)NC(=O)[C@H](Cc1c[nH]cn1)NC(=O)[C@H](CC(=O)O)NC(=O)[C@H](CO)NC(=O)[C@@H](NC(=O)[C@](C)(Cc1ccccc1F)NC(=O)[C@@H](NC(=O)CNC(=O)[C@H](CCC(=O)O)NC(=O)C(C)(C)NC(=O)[C@@H](N)Cc1ccc(O)cc1)[C@@H](C)O)[C@@H](C)O)[C@@H](C)CC)[C@@H](C)O)[C@@H](C)CC)C(=O)N[C@@H](CCC(=O)O)C(=O)NCC(=O)NCC(N)=O [Example 166] (H-Y[Aib]EGT[αMePhe(2-F)]TSDHSI[αMeL]LDEK([AEEA-AEEA-γGlu-C20 diacid])AQ[Aib]TFI[dE]YLIEGG-NH2; N-terminus assumed) | 4.08 | 0.355
CC[C@H](C)[C@H](NC(=O)[C@H](CC(C)C)NC(=O)[C@](C)(Cc1ccc(O)cc1)NC(=O)[C@@H](CCC(=O)O)NC(=O)[C@@H](NC(=O)[C@H](Cc1ccccc1)NC(=O)[C@H](CCC(=O)O)NC(=O)C(C)(C)NC(=O)[C@H](CCC(N)=O)NC(=O)[C@H](C)NC(=O)[C@H](CCCCN)NC(=O)[C@H](CCCN)NC(=O)[C@H](CC(=O)O)NC(=O)[C@H](CC(C)C)NC(=O)[C@](C)(CC(C)C)NC(=O)[C@@H](NC(=O)[C@H](CO)NC(=O)[C@H](Cc1ccncc1)NC(=O)[C@H](CC(=O)O)NC(=O)[C@H](CO)NC(=O)[C@@H](NC(=O)[C@](C)(Cc1ccccc1F)NC(=O)[C@@H](NC(=O)CNC(=O)[C@H](CCC(=O)O)NC(=O)C(C)(C)NC(=O)[C@@H](N)Cc1ccc(O)cc1)[C@@H](C)O)[C@@H](C)O)[C@@H](C)CC)[C@@H](C)CC)C(=O)N[C@@H](CCC(=O)O)C(=O)NCC(=O)NCC(=O)N1CCC[C@H]1C(=O)N[C@@H](CO)C(=O)N[C@@H](CO)C(=O)NCC(=O)N[C@@H](C)C(=O)N1CCC[C@H]1C(=O)N1CCC[C@H]1C(=O)N1CCC[C@H]1C(=O)N[C@@H](CO)C(N)=O [Example 284] (H-Y[Aib]EGT[αMePhe(2-F)]TSD[4Pal]SI[αMeL]LD[Orn]KAQ[Aib]EFI[dE][αMeY]LIEGGPSSGAPPPS-NH2) | 0.0462 | 0.113
CC[C@H](C)[C@H](NC(=O)[C@H](CCCCN)NC(=O)[C@H](CC(=O)O)NC(=O)[C@H](CC(C)C)NC(=O)[C@](C)(CC(C)C)NC(=O)[C@@H](NC(=O)[C@H](CO)NC(=O)[C@H](CCCCNC(=O)COCCOCCNC(=O)COCCOCCNC(=O)CC[C@H](NC(=O)CCCCCCCCCCCCCCCCCCC(=O)O)C(=O)O)NC(=O)[C@H](CC(=O)O)NC(=O)[C@H](CO)NC(=O)[C@@H](NC(=O)[C@H](Cc1ccccc1)NC(=O)[C@@H](NC(=O)CNC(=O)[C@H](CCC(=O)O)NC(=O)C(C)(C)NC(=O)[C@@H](N)Cc1ccc(O)cc1)[C@@H](C)O)[C@@H](C)O)[C@@H](C)CC)C(=O)N[C@@H](C)C(=O)N[C@@H](CCC(N)=O)C(=O)NC(C)(C)C(=O)N[C@@H](C)C(=O)N[C@@H](Cc1ccccc1)C(=O)N[C@H](C(=O)N[C@@H](CCC(=O)O)C(=O)N[C@@H](Cc1ccc(O)cc1)C(=O)N[C@@H](CC(C)C)C(=O)N[C@H](C(=O)N[C@@H](CCC(=O)O)C(=O)NCC(=O)NCC(N)=O)[C@@H](C)CC)[C@@H](C)CC [Example 96] (H-Y[Aib]EGTFTSDK([AEEA-AEEA-γGlu-C20 diacid])SI[αMeL]LDKIAQ[Aib]AFIEYLIEGG-NH2) | 0.59 | 0.712
CC[C@H](C)[C@H](NC(=O)[C@H](CC(C)C)NC(=O)[C@H](Cc1ccc(O)cc1)NC(=O)[C@H](CCC(=O)O)NC(=O)[C@@H](NC(=O)[C@H](Cc1ccccc1)NC(=O)[C@H](C)NC(=O)C(C)(C)NC(=O)[C@H](CCC(N)=O)NC(=O)[C@H](C)NC(=O)[C@H](CCCCNC(=O)COCCOCCNC(=O)[C@@H](N)CCCCNC(=O)[C@@H](N)CCCCNC(=O)CCCCCCCCCCCCCCCCCCC(=O)O)NC(=O)[C@H](CCCCN)NC(=O)[C@H](CC(=O)O)NC(=O)[C@H](CC(C)C)NC(=O)[C@H](CC(C)C)NC(=O)[C@@H](NC(=O)[C@H](CO)NC(=O)[C@H](Cc1ccc(O)cc1)NC(=O)[C@H](CC(=O)O)NC(=O)[C@H](CO)NC(=O)[C@@H](NC(=O)[C@H](Cc1ccccc1)NC(=O)[C@@H](NC(=O)CNC(=O)[C@H](CCC(=O)O)NC(=O)C(C)(C)NC(=O)[C@@H](N)Cc1ccc(O)cc1)[C@@H](C)O)[C@@H](C)O)[C@@H](C)CC)[C@@H](C)CC)C(=O)N[C@@H](CCC(=O)O)C(=O)NCC(=O)NCC(=O)N1CCC[C@H]1C(=O)N[C@@H](CO)C(=O)N[C@@H](CO)C(=O)NCC(=O)N[C@@H](C)C(=O)N1CCC[C@H]1C(=O)N1CCC[C@H]1C(=O)N1CCC[C@H]1C(=O)N[C@@H](CO)C(N)=O [Example 114] | 0.267 | 0.133
